According to patent US20260184675A1, “CHIRAL ISOMERIC SULFITE COMPOUND AND APPLICATION THEREOF” (Chengdu Hanova BioSciences Co., Ltd, priority 2024, published 2026):

Key:
[1] = system: eggs of Spodoptera litura; experiment: Effect on hatching of eggs of Spodoptera litura, egg piece soaking; type: in vivo; conditions: 500 ppm; for Hatching rate (%), Replicate 1 / Hatching rate (%), Replicate 2 / Hatching rate (%), Replicate 3 / Number of unhatched larvae 4 days after insecticide delivery, Replicate 1 / Number of unhatched larvae 4 days after insecticide delivery, Replicate 2 / Number of unhatched larvae 4 days after insecticide delivery, Replicate 3: Spodoptera litura eggs; for Hatching rate (%), Replicate 1 / Hatching rate (%), Replicate 2 / Hatching rate (%), Replicate 3: 4 days after delivery; for Number of unhatched larvae 4 days after insecticide delivery, Replicate 1 / Number of unhatched larvae 4 days after insecticide delivery, Replicate 2 / Number of unhatched larvae 4 days after insecticide delivery, Replicate 3: soaked 10 minutes
Protocol: • (1) Preparation of paper containing eggs: the egg mass was cut into small pieces, each containing about 60 eggs, soaked in a preformulated test agent for 10 minutes together with paper for egg raising (concentration of each compound of 500 ppm). After taken out, absorbent paper was used to absorb the excess solution adhered to the paper for egg raising and egg pieces. (2) Cultivation: Each egg piece was separately placed in a glass test tube (5.0 cm in height, 2.5 cm in diameter, the same below), which was sealed with plastic paper punctured with fine holes using insect needles and cultivated in an artificial climate chamber at a temperature of (24±1° C.), a relative humidity of (80±10) %, and a photoperiod of L:D=12:12. When the eggs developed until they were about to hatch, castor leaves with a diameter of about 3 cm were added for feeding the hatching larvae; • (3) Observation: the number of hatched and unhatched eggs per egg piece was checked and recorded, and the hatching rate of eggs was calculated according to the formula. Each treatment was repeated for 3 times. • (4) Survey of results: The experimental materials of each treatment group were regularly hydrated and moisturized, and the hatching of eggs was observed. On the 4th day after insecticide delivery, the number of hatched eggs for each treatment was recorded, and the survey of results was recorded in the original notebook. According to the experimental requirements and characteristics of agents, the survey time can be shortened or extended. • 1) Surveying and recording the number of hatched eggs for each treatment. • 2) Recording the developmental status of experimental eggs of Spodoptera litura, behavior status of nymphs, including abnormal phenomena such as delayed or stopped development of eggs of Spodoptera litura, etc. • (5) Calculation method: Based on the survey data, the prevention and control effect of each treatment was calculated according to the following formula, and the calculation results were kept to two decimal places. [formula] [formula]

[2] = system: pest eggs of Tetranychus cinnabarinus; experiment: Effect on hatching of pest eggs of Tetranychus cinnabarinus, leaf disc method; type: in vivo; conditions: for Hatching rate (%): 7 days after insecticide delivery; for inhibitory effect on the hatching of pest eggs of Tetranychus cinnabarinus (in words): 1 ppm
Protocol: • (1) Preparation of leaf discs containing eggs: 20 female adult mites of Tetranychus cinnabarinus were transferred onto leaf discs of Vicia faba with a diameter of 2.0 cm (with wetted filter paper at the bottom), then covered it with a lidded culture dish and cultivated under moisturizing conditions, the adult mites were removed within 36 hours and microscopic examination and counting were performed on leaf discs containing eggs. • (2) Investigation of egg population base: Before pesticide soaking, a microscopic examination was conducted on the egg basic number of each leaf disc, with 2 replicates set for each treatment. • (3) Pesticide soaking treatment: The leaf butterflies loaded with mite eggs were soaked in clear water and sulfite compounds for 10 seconds, respectively, then taken out and cultivated under moisturizing conditions. Each treatment should be repeated for no less than 3 times. • (4) Cultivation and observation: The […] were cultivated under normal conditions. Five days after insecticide delivery, the hatching status of mite eggs was investigated. • Note: The temperature and humidity conditions of the constant temperature and humidity incubator after the treatment should be controlled so as to avoid excessive temperature differences, which may cause generation and dripping of condensate water in the culture dish, resulting in abnormal death of eggs due to soaking in water; it is also necessary to ensure sufficient strong ambient light, without directing irradiating the leaves. • (5) Survey of Results: The experimental materials of each treatment group were regularly hydrated and moisturized, and the hatching of eggs was observed. On the 7th day after insecticide delivery, the number of hatched eggs for each treatment was recorded, and the survey of results was recorded in the original notebook. According to the experimental requirements and characteristics of agents, the survey time can be shortened or extended. • 1) Surveying and recording the number of hatched eggs for each treatment. • 2) Photographing and recording whether there was any pesticide damage to the leaf discs of Vicia faba. • 3) Recording the developmental status of experimental mite eggs, behavior status of nymph mites, including abnormal phenomena such as delayed or stopped development of mite eggs, difficulty in breaking hull for nymph mites, or painful struggles after hatching, etc. • (6) Calculation method: Based on the survey data, the prevention and control effect of each treatment was calculated according to the following formula, and the calculation results were kept to two decimal places. [formula] [formula] [table]

Compound	Hatching rate (%) ([2]; 0.25 mg/L, Replicate 1)	Hatching rate (%) ([2]; 0.25 mg/L, Replicate 2)	Number of hatched larvae 7 days after insecticide delivery ([2]; 0.25 mg/L, Replicate 1)	Number of hatched larvae 7 days after insecticide delivery ([2]; 0.25 mg/L, Replicate 2)	Hatching rate (%) ([2]; 0.5 mg/L, Replicate 1)	Hatching rate (%) ([2]; 0.5 mg/L, Replicate 2)	Number of hatched larvae 7 days after insecticide delivery ([2]; 0.5 mg/L, Replicate 1)	Number of hatched larvae 7 days after insecticide delivery ([2]; 0.5 mg/L, Replicate 2)	Hatching rate (%) ([2]; 1 mg/L, Replicate 1)	Hatching rate (%) ([2]; 1 mg/L, Replicate 2)	Number of hatched larvae 7 days after insecticide delivery ([2]; 1 mg/L, Replicate 1)	Number of hatched larvae 7 days after insecticide delivery ([2]; 1 mg/L, Replicate 2)	inhibitory activity on the hatching of eggs of Spodoptera litura (in words) [1]	inhibitory effect on the hatching of pest eggs of Tetranychus cinnabarinus (in words) [2]	also measured
CC(COc1ccc(Cl)cc1Cl)OS(=O)OCCF [1′-(R,R)]	69.57%	82.22%	14	8	36.84%	36.51%	36	40	25.37%	8.00%	50	69			Hatching rate (%), Replicate 1 ([1]; listed as 1′-(R, R)): 61.82%; Hatching rate (%), Replicate 2 ([1]; listed as 1′-(R, R)): 64.29%; Hatching rate (%), Replicate 3 ([1]; listed as 1′-(R, R)): 62.71%; Number of unhatched larvae 4 days after insecticide delivery, Replicate 1 ([1]; listed as 1′-(R, R)): 21; Number of unhatched larvae 4 days after insecticide delivery, Replicate 2 ([1]; listed as 1′-(R, R)): 20; Number of unhatched larvae 4 days after insecticide delivery, Replicate 3 ([1]; listed as 1′-(R, R)): 22
CC(COc1ccc(Cl)cc1Cl)OS(=O)OCCF [1′-(R,S)]	54.17%	29.17%	22	68	1.25%	5.00%	79	76	0.00%	0.00%	62	42	good inhibitory activities	excellent inhibitory effects	Hatching rate (%), Replicate 1 ([1]; listed as 1′-(R, S)): 28.33%; Hatching rate (%), Replicate 2 ([1]; listed as 1′-(R, S)): 25.00%; Hatching rate (%), Replicate 3 ([1]; listed as 1′-(R, S)): 20.34%; Number of unhatched larvae 4 days after insecticide delivery, Replicate 1 ([1]; listed as 1′-(R, S)): 43; Number of unhatched larvae 4 days after insecticide delivery, Replicate 2 ([1]; listed as 1′-(R, S)): 48; Number of unhatched larvae 4 days after insecticide delivery, Replicate 3 ([1]; listed as 1′-(R, S)): 47
CC(COc1ccc(Cl)cc1Cl)OS(=O)OCCF [1′-(S,R)]	42.86%	44.83%	28	32	8.89%	3.23%	41	60	0.00%	0.00%	69	78	good inhibitory activities	excellent inhibitory effects	Hatching rate (%), Replicate 1 ([1]; listed as 1′-(S, R)): 27.87%; Hatching rate (%), Replicate 2 ([1]; listed as 1′-(S, R)): 26.98%; Hatching rate (%), Replicate 3 ([1]; listed as 1′-(S, R)): 21.05%; Number of unhatched larvae 4 days after insecticide delivery, Replicate 1 ([1]; listed as 1′-(S, R)): 44; Number of unhatched larvae 4 days after insecticide delivery, Replicate 2 ([1]; listed as 1′-(S, R)): 46; Number of unhatched larvae 4 days after insecticide delivery, Replicate 3 ([1]; listed as 1′-(S, R)): 45
CC(COc1ccc(Cl)cc1Cl)OS(=O)OCCF [1′-(S,S)]	64.58%	69.57%	17	14	27.59%	12.00%	42	66	16.36%	14.63%	46	35			Hatching rate (%), Replicate 1 ([1]; listed as 1′-(S, S)): 64.52%; Hatching rate (%), Replicate 2 ([1]; listed as 1′-(S, S)): 63.79%; Hatching rate (%), Replicate 3 ([1]; listed as 1′-(S, S)): 66.07%; Number of unhatched larvae 4 days after insecticide delivery, Replicate 1 ([1]; listed as 1′-(S, S)): 22; Number of unhatched larvae 4 days after insecticide delivery, Replicate 2 ([1]; listed as 1′-(S, S)): 21; Number of unhatched larvae 4 days after insecticide delivery, Replicate 3 ([1]; listed as 1′-(S, S)): 19
